Literature values in patent EP0540813B1, “Sustained release formulations of acetazolamide” (AMERICAN CYANAMID COMPANY, priority 1991, dated 1993).

Details: reported in the literature

CC(=O)Nc1nnc(S(N)(=O)=O)s1 [acetazolamide, N-(5-sulphamoyl-1,3,4-thiadiazol-2-yl)acetamide]
plasma levels considered toxic: above 30 µg/ml
therapeutic plasma range: 5 to 10 µg/mL
